Measurements as given in US20060134119A1, “Drugs containing galectin 9” (priority 2003, published 2006).
Residues, ends and D or L forms follow the SMILES beside them. *: point of attachment. Cbz = O=C(OCc1ccccc1)*; CH2F = FC*

Tests used:
[1] = test system: MOLT-4 cells; assay: Ca2+ influx, Fluo-3 assay by flow cytometry; type: cell-based, human; details: FIG. 8; for effect on calcium influx induced by Gal-9: 30 mM lactose or sucrose
Method: Cells (approx. 10^6 to 10^7 cells/mL) in the culture medium (10% FCS, RPMI-1640 containing 10 mM HEPES, pH 7.2) were incubated with fluo-3 AM (final concentration 10 μM, Dojindo, Kumamoto, Japan), an intracellular calcium indicator, at 37° C. for 30 min (Sharp, B. M. et al., Proc. Natl. Acad. Sci. USA, 93: 8294 (1996)). Then the cells were washed and resuspended in the culture medium (final concentration, approx. 2×10^5 cells/mL per sample). Intracellular calcium level was measured by flow cytometry. The resting cells were stimulated at 1 min after their fluorescence intensities were measured.
Next, sequential measurement was restarted until different stimuli were applied. In lactose inhibition assay, cells were stimulated in the presence of 30 mM lactose. Sucrose (30 mM) was used as a control (Sano, H. et al., J. Imnunol., 165: 2156 (2000)). A23187 (calcium ionophore, final concentration 5 ng/mL, Wako, Osaka, Japan) was used as a positive control.

[2] = test system: K-562 leukemic cells; details: 16 hr incubation with 1 mM galectin-9, PI, FACS
Method: (§1) Cytotoxicities in Jurkat T cells, K-562 leukemic cells, and normal lymphocytes were measured by flow cytometry analysis using PI. That is, PI invades into the damaged target cells when PI is added for the last 15 min of 16 hr incubation with 1 mM galectin-9. Fluorescence generated by PI is measured by FACS. Untreated cells were used as a negative control group, formalin-fixed cells as a 100% dead cell group, and H2O2 (hydrogen peroxide solution)-treated cells as a positive control group, respectively.

[3] = test system: Jurkat T cells; details: 16 hr incubation with 1 mM galectin-9, PI, FACS
Method: as §1

[4] = test system: normal lymphocytes; details: Normal Lymphocyte; 16 hr incubation with 1 mM galectin-9; PI, FACS
Method: as §1

[5] = test system: MOLT-4 cells; assay: Inhibition of Gal-9- or other stimulus-induced apoptosis by lactose, caspase and calpain inhibitors; type: cell-based, human; details: for inhibition of TNF-α-induced apoptosis / inhibition of anti-Fas Ab-induced apoptosis / inhibition of C2 ceramide-induced apoptosis / inhibition of DEX-induced apoptosis: caspase inhibitors; for inhibition of TNF-α-induced apoptosis / inhibition of anti-Fas Ab-induced apoptosis / inhibition of C2 ceramide-induced apoptosis / inhibition of DEX-induced apoptosis / inhibition of Gal-9-induced apoptosis: FIG. 5; for inhibition of Gal-9-induced apoptosis: inhibitor at 10 μM, added 1 hr before Gal-9 stimulation; for effect on pro-apoptosis activity by Gal-9: 30 mM lactose or sucrose, FIG. 2
Method: MOLT-4 (T cell), Jurkat (T cell), BALL-1 (B cell), THP-1 (acute monocytic leukemia derived cell), and HL60 (acute promyelotic leukemia derived cell) cells were obtained from American Type Culture Collection (ATCC). All the cell lines were maintained in an RPMI-1640 medium (Sigma, St. Louis, US) supplemented with 10% FCS in 5% Co2 at 37° C. Lactose (30 mM) was added to the culture medium to inhibit Gal-9 activity. The same concentration of sucrose was used as a control. Cells were incubated with Gal-9 in the presence of Z-VAD-FMK (pan-caspase inhibitor), Z-YVAD-FMK (caspase-1 inhibitor), Z-IETD-FMK (caspase-8 inhibitor), Z-LEHD-FMK (caspase-9 inhibitor), Z-ABVD-FMK (caspase-lo inhibitor), or Z-LLY-FMK (calpain inhibitor) (BioVision, CA, US), at 10 μM, and the participation of caspase or calpain in the Gal-9-induced apoptosis was examined. Z-FA-FMK (BioVision, CA, US) was used as a control (Vu C. C. et al., J. Biol. Chem., 276: 37602 (2001) and Sweeney E. A. et al., FEBs Lett., 425: 61 (1998)). Each inhibitor was added 1 hr before Gal-9 stimulation. The following agents were purchased from suppliers below: DEX (BioVision, CA, US), anti-Fas Ab (clone CH-11, MBL), TNFα (Genzyme, Cambridge, Mass., US), C2 ceramide (SIGMA), and etoposide (Biovision).

[6] = test system: MOLT-4 cells; assay: as above; type: cell-based, human; details: inhibitor at different concentrations; FIG. 6, FIG. 7
[7] = test system: MM-RU; assay: Induction of cell aggregation in MM-RU; type: cell-based, human; details: controls, at the dose of at least 1 μM
Method: Recombinant galectin-9 prepared via gene transfer into E. coli was added to MM-RU exogenously, and the efficacy of galectin-9 was then examined. As a result, galectin-9 induced aggregation of MM-RU at the concentration of 0.1 μM or higher. In addition, the galectin-9 efficacy was concentration-dependent, and significant between 0.3-1.0 μM.

[8] = test system: CD8+ T cells; assay: Apoptosis induction in peripheral blood CD8+ T cells, resting or anti-CD3 Ab-activated; type: cell-based, human; details: galectin (+), 1 μM rGal-9
Method: (§2) To prepare a well plate coated with anti-CD3 Ab, 24 well palates were incubated with TBS solution (pH 8.0) containing 3 μg/mL anti-CD3 Ab (Inmunotech, Marseille, France) per well at 4° C. overnight, and each well was washed with PBS after removing anti-CD3 Ab solution.
(§3) Mononuclear leukocyte fractions were isolated from heparinized blood using HISTOPAQUE (Registered trademark, SIGMA). CD4-Positive Isolation Kit (DYNAL, Oslo, Norway) was used for isolation of CD4+ T cells and Dynabeads M-450 CD8 (Registered trademark, DYNAL, Oslo, Norway) for isolation of CD8+ T cells, respectively, according to the manufacturer's instructions.
(§4) To activate T cells, CD4+ or CD8+ cells at 1×10^6 cells/mL in an RPMI-1640 medium containing 10% FCS were incubated on the plate coated with anti-CD3 Ab for 20 to 24 hr at 37° C. in a 5% CO2 incubator, and incubated with rGal-9 [(His)6-Gal-9(S)] at 37° C. in a 5% CO2 incubator. Then apoptosis assay was conducted as described in (c). That is, cells were incubated with 50 μg/mL PI (SIGMA) at 37° C. for 10 min in the dark. Stained cells were analyzed by flow cytometry (Sandstrom, K. et al., J Immunol Methods, 240: 55 (2000) and Zhang L. et al., Cancer Lett, 142: 129 (1999)).
(§5) Apoptosis assay was also conducted for non-activated (resting) T cells as described above after incubating them with rGal-9 [(His)6-Gal-9(S)] at 37° C. in a 5% Co2 incubator.
(§6) For comparison, galectin-1 and -3 treated cells were analyzed.
(§7) Next, apoptosis induction by Gal-9 in human peripheral blood T cells was examined. T cells were separated into CD4+ and CD8+ T cells followed by incubation in the presence or absence of anti-CD3 Ab. Resting T cells and anti-CD3 Ab-activated T cells were incubated with 1 μM rGal-9.

[9] = test system: CD4+ T cells; assay: Apoptosis induction in peripheral blood CD4+ T cells, resting or anti-CD3 Ab-activated; type: cell-based, human; details: galectin (+), 1 μM rGal-9
Method: as §2, §3, §4, §5, §6, §7

[10] = test system: CD4 T Cell; assay: Apoptosis induction in non-activated normal CD4 T cells (Table 4); type: cell-based; details: 1 μM galectin-9, 1 μM galectin-3
Method: (§8) For example, measurements of apoptosis induction in the presence of 1 μM galectin-9 are as shown in Table 4 below (also 1 μM for galectin-3 in Table 4).

[11] = test system: CD8 T Cell; assay: Apoptosis induction in non-activated normal CD8 T cells (Table 4); type: cell-based; details: 1 μM galectin-9, 1 μM galectin-3
Method: as §8

[12] = CD3 (+) cells activated on anti-CD3 Ab-coated plates
[13] = CD3 (−) untreated resting cells

CNc1ccc2oc(C[C@H]3O[C@@]4(CC[C@H]3C)O[C@H]([C@H](C)C(=O)c3ccc[nH]3)[C@H](C)C[C@H]4C)nc2c1C(=O)O [A23187]
calcium influx ([1]; Fluo-3 assay, A23187 final concentration 5 ng/mL): significantly induced

OO [H2O2, hydrogen peroxide solution, reference compound]
cytotoxicity, 16 hours [2]: 99.2 | cytotoxicity, 16 hours [3]: 97.7 | cytotoxicity, 16 hours [4]: 96.8

COC(=O)CC[C@H](NC(=O)[C@H](C)NC(=O)OCc1ccccc1)C(=O)N[C@H](C(=O)N[C@@H](CC(=O)OC)C(=O)CF)C(C)C [Z-AEVD-FMK] (Cbz-AE(OMe)VD(OMe)-CH2F)
inhibition of TNF-α-induced apoptosis [5]: inhibited | inhibition of anti-Fas Ab-induced apoptosis [5]: inhibited

CC[C@H](C)[C@H](NC(=O)OCc1ccccc1)C(=O)N[C@@H](CCC(=O)OC)C(=O)N[C@H](C(=O)N[C@@H](CC(=O)OC)C(=O)CF)[C@@H](C)O [Z-IETD-FMK] (Cbz-IE(OMe)TD(OMe)-CH2F)
inhibition of TNF-α-induced apoptosis [5]: inhibited | inhibition of anti-Fas Ab-induced apoptosis [5]: inhibited

COC(=O)CC[C@H](NC(=O)[C@H](CC(C)C)NC(=O)OCc1ccccc1)C(=O)N[C@@H](Cc1cnc[nH]1)C(=O)N[C@@H](CC(=O)OC)C(=O)CF [Z-LEHD-FMK] (Cbz-LE(OMe)HD(OMe)-CH2F)
inhibition of C2 ceramide-induced apoptosis [5]: inhibited

CC(C)CC(NC(=O)OCc1ccccc1)C(=O)NC(CC(C)C)C(=O)NC(Cc1ccc(O)cc1)C(=O)CF (stereo not drawn) [Z-LLY-FMK] (Cbz-Leu-Leu-Tyr-CH2F; configuration not given here)
inhibition of Gal-9-induced apoptosis, dose dependence [6]: in a dose dependent manner

COC(=O)C[C@H](NC(=O)[C@H](C)NC(=O)[C@@H](NC(=O)OCc1ccccc1)C(C)C)C(=O)CF [Z-VAD-FMK] (Cbz-Val-Ala-Asp(OMe)-CH2F)
inhibition of Gal-9-induced apoptosis, dose dependence [6]: in a dose-dependent manner | inhibition of C2 ceramide-induced apoptosis [5]: inhibition | inhibition of DEX-induced apoptosis [5]: inhibition | inhibition of TNF-α-induced apoptosis [5]: inhibition | inhibition of anti-Fas Ab-induced apoptosis [5]: inhibition | inhibition of Gal-9-induced apoptosis [5]: almost completely inhibited

COC(=O)C[C@H](NC(=O)[C@H](C)NC(=O)[C@@H](NC(=O)[C@H](Cc1ccc(O)cc1)NC(=O)OCc1ccccc1)C(C)C)C(=O)CF [Z-YVAD-FMK]
inhibition of Gal-9-induced apoptosis, dose dependence [6]: in a dose-dependent manner | inhibition of DEX-induced apoptosis [5]: inhibited | inhibition of Gal-9-induced apoptosis [5]: inhibited

OC[C@H]1O[C@@H](O[C@H]2[C@H](O)[C@@H](O)C(O)O[C@@H]2CO)[C@H](O)[C@@H](O)[C@H]1O (some centres unmarked) [lactose, Lactose]
effect on pro-apoptosis activity by Gal-9 [5]: almost completely inhibited | effect on calcium influx induced by Gal-9 [1]: inhibited

OC[C@H]1O[C@@](CO)(O[C@H]2O[C@H](CO)[C@@H](O)[C@H](O)[C@H]2O)[C@@H](O)[C@@H]1O [sucrose]
effect on pro-apoptosis activity by Gal-9 [5]: not | effect on calcium influx induced by Gal-9 [1]: not inhibited

Galectin-1: galectin used for comparison / control
aggregation [7]: No obvious aggregation | apoptosis induction, CD8 [8, 12]: 19 | apoptosis induction, CD8 [8, 13]: 9.6 | apoptosis induction, CD4 [9, 12]: 13.9 | apoptosis induction, CD4 [9, 13]: 8.1

Galectin-3: galectin used for comparison / control
aggregation [7]: No obvious aggregation | apoptosis induction, CD8 [8, 12]: 20.9 | apoptosis induction, CD8 [8, 13]: 14.7 | apoptosis induction, CD4 [9, 12]: 15.7 | apoptosis induction, CD4 [9, 13]: 9.6 | apoptosis induction, CD4 T Cell Resting [10]: 10.3 | apoptosis induction, CD8 T Cell Resting [11]: 15.9
